From paper PMC3105096, “Construction of Chimeric Dual-Chain Avidin by Tandem Fusion of the Related Avidins” (PLoS ONE, 2011)

Legend:
[1] = molecular target: T1, AVR4(C122S); also printed AVR4(C112S) (Gallus gallus, UniProt P56734, C146S); assay: SDS-PAGE thermostability of acylated protein; type: binding; details: thermal shift of subunit dissociation; Tr without biotin 90 °C; 140 µM D-biotin
T1 construct: recombinant AVR4 with cysteine-to-serine change, tetramer
Description: SDS-PAGE thermostability of acylated protein on AVR4(C122S); also printed AVR4(C112S)

[2] = molecular target: chimeric dual-chain avidin dcAVD/AVR4 (tandem fusion of circularly permuted avidin cp54 and circularly permuted AVR4 cp65) (chicken); assay: SEC; Superdex 75 10/300 GL, 50 ug protein in 50 mM NaPO4 pH 7, 650 mM NaCl; column calibrated with Bio-Rad standards 1.5-67 kDa; dimer of the dual-chain polypeptide (pseudotetramer)

T1 sequence (P56734 25-150 C146S): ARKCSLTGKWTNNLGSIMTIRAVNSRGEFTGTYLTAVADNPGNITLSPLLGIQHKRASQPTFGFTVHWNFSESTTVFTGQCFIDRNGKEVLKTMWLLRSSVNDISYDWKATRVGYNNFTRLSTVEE

| stoichiometry N [2] | Compound | SDS-PAGE / Tr ^(+BTN) (°C) [1] [°C] |
| --- | --- | --- |
|  | O=C(O)CCCC[C@@H]1SC[C@@H]2NC(=O)N[C@@H]21 [D-biotin] | 95 |
| 2 | chimeric dual-chain avidin dcAVD/AVR4 (tandem fusion of circularly permuted avidin cp54 and circularly permuted AVR4 cp65) |  |
